{"source": "patent US20070149481A1", "about": "“N,n-bridged, nitrogen-substituted carbacyclic indolocarbazoles as protein kinase inhibitors” (priority 2002, published 2007)", "key": {"PKC (rat brain)": {"tested_on": "PKC (rat brain)", "assay": "Protein Kinase C inhibition assay (PKC)", "format": "biochemical", "conditions": "10 μM compound", "description": "(§1) The ERK2 kinase activity assay utilizes a radioactivity-based format in a 96-well PCR plate with radioactive readout. The ERK2 activity was assayed in a 25 μL assay mixture containing 25 mM HEPES (pH 7.0), 250 μM ATP, 1 mM MgCl2, 1 mM DTT, 2% DMSO, 150 ng/mL Myelin Basic Protein (MBP, Sigma M-1891), and 13.6 ng/mL His tagged ERK2 (specific activity=38.1 nmol/min*mg). Compounds were screened for inhibition of the ERK2 kinase activity at a concentration of 10 μM. The kinase reaction was allowed to proceed at 37° C. for 30 minutes, then reaction was stopped by the addition of 5 μl of 0.5M EDTA (pH 8). 15 μL of each solution were then spotted onto the corresponding square of a filtermat (8×12 glassfibre mat 90×120 mm, PE-Wallac 1450-421). The filtermat was allowed to dry and washed once with 10% TCA, 2% PPA, 500 mM NaCl each for 30 minutes at rt. Two further washings in 10% TCA and 2% PPA for 30 minutes were performed, then a final 30 minute wash in 99% EtOH at rt was done and the filtermat was air dried. The dry filtermat was then placed in a sample bag with a Meltilex sheet (Melt-on scintillator sheets 73×109 mm, PE-Wallac 1450-441 for filtermat A) over the filtermat. The bag was trimmed to fit into the microplate heatsealer (PE-Wallac 1495-021). The heatsealer is used to melt the Meltilex on the filtermat. The bag containing the filtermat and the melted Meltilex was then placed into a filter cassette and counted using the Microbeta Jet Scintillation and Luminescence Counter PE-Wallac 1450.\nThe PKC kinase activity assay utilizes a radioactivity-based format in a 96-well PCR plate with radioactive readout. The PKC activity was assayed in a 25 μL assay mixture containing 25 mM HEPES (pH 7.0), 250 μM ATP, 10 mM MgCl2, 1 mM DTT, 1 mM EDTA (pH 8), 2 mM CaCl2, 2% DMSO, 250 ng/mL Histone H1 (Roche 1 004 875), and 165 ng/mL PKC (rat brain, Calbiochem 539494, specific activity=1600 nmol/min*mg). Compounds were screened for inhibition of the PKC kinase activity at a concentration of 10 μM. The kinase reaction was allowed to proceed at 37° C. for 30 minutes, then the reaction was stopped by addition of 5 μL of 0.5M EDTA (pH 8). The remainder of the protocol is identical to the one reported for ERK2."}, "[1]": {"biological_target": "T1, PKA (catalytic subunit, bovine heart) (Bos taurus, UniProt P00517)", "T1 construct": "PKA (catalytic subunit, bovine heart, Calbiochem 539486); purchased Calbiochem 539486; host or cells: bovine heart (tissue-derived)", "assay": "Protein Kinase A inhibition assay (PKA)", "format": "biochemical", "conditions": "10 μM compound", "description": "as §1\nThe PKA kinase activity assay utilizes a radioactivity-based format in a 96-well PCR plate with radioactive readout. The PKA activity was assayed in a 25 μL assay mixture containing 25 mM HEPES (pH 7.0), 250 μM ATP, 10 mM MgCl2, 1 mM DTT, 1 mM EDTA (pH 8). 2% DMSO. 250 ng/mL Histone H2B (Roche 223 514), and 2 ng/mL PKA (catalytic subunit, bovine heart, Calbiochem 539486, specific activity=1170 pmol/min*μg). Compounds were screened for inhibition of the PKA kinase activity at a concentration of 10 μM. The kinase reaction was allowed to proceed at 37° C. for 30 minutes, then the reaction was stopped by addition of 5 μL of 0.5M EDTA (pH 8). The remainder of the protocol is identical to the one reported for ERK2."}, "His tagged ERK2": {"biological_target": "His tagged ERK2 (Homo sapiens, UniProt P28482)", "sequence (P28482 whole entry)": "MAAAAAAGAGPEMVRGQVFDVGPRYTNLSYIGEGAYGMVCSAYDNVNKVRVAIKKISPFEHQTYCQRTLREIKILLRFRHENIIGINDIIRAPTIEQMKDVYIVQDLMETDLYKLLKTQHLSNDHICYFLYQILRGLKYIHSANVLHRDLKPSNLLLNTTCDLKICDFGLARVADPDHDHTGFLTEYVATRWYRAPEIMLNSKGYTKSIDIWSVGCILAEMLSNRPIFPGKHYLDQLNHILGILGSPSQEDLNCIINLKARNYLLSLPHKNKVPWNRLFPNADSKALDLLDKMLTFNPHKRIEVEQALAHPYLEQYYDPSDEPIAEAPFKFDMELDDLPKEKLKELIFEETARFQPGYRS", "assay": "Extracellular signal Regulated Kinase 2 inhibition assay (ERK2), radioactive filtermat format", "format": "biochemical", "conditions": "10 μM compound", "description": "as §1"}, "[2]": {"assay": "Determination of brain/plasma ratios for K252a and NAD002 for comparison with NAD0241 (Example 56F)", "format": "in vivo, Wistar Han Rats", "conditions": "rats, 1 hour post-administration", "description": "Application of Compound: 5 mg/kg of NAD 241 and NAD0180 each in a vehicle of 1.5 mL/kg PEG 400 Macrogol Ph. Eur. were applied i.v. through the femoral vein to two groups (n=3) of Wistar Han Rats weighing between 240-270 g. The application was performed under anaesthesia, initiated with 3.5% Isofluorane/O2, then maintained at 1% during compound application and suture of the vein. 200 μL of local anaesthetic lidocaine were locally administered. 1 hour after application of the compound 200 μl of blood were obtained by tail vein incision. Immediately following the blood sampling rats were terminated by decapitation after brief CO2 anaesthesia Brains were resected and weighed. Plasma was obtained by centrifugation of the tail vein blood at 13000 g for 20 minutes at 4° C. Prior art compounds […] and NAD002 and were assessed using identical conditions of application as used in example 56E to provide a direct comparison with NAD0241 for the ability to penetrate the blood-brain barrier. Volumes of injection for all compounds (including NAD0241) was fixed at 2.3 mL/kg, in average about 500-600 μL per animal. The other parameters were left unchanged. Sampling of body fluids and brain tissue was performed as described in example 56E. Extraction of compounds from brain and plasma was performed as described in example 56E but no concentrated ammonia solution was added prior to extraction of […] and NAD002. HPLC analysis of […] was performed on a 5 μm Merck RP 18 Select B 12.5×4.6 mm column at a flow rate of 0.75 mL/min with isocratic elution by acetonitrile/water 60/40 (v/v). Fluorescent excitation/emission was at 284 nm/476 nm. NAD002 was analyzed on a C 18 shield symmetry 25×4.6 mm (Waters and Owen) at 40° C. using excitation/emission wavelengths of 315/565 nm. Quantitations were performed as under example 56E."}, "GSK3β": {"biological_target": "T2, GSK3β (Homo sapiens, UniProt P49841)", "T2 construct": "purchased Upstate Discovery", "T2 sequence (P49841 whole entry, species assumed)": "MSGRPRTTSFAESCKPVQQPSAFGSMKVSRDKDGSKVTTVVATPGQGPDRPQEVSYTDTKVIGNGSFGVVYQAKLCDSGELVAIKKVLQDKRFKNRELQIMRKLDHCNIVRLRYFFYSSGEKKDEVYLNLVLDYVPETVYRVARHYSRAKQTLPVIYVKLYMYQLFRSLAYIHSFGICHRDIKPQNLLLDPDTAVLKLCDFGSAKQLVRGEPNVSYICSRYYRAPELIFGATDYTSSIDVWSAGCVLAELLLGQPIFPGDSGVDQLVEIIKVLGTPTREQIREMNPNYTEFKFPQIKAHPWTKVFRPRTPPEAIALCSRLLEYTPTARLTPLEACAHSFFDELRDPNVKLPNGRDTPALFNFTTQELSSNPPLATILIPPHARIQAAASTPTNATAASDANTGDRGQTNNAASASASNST", "assay": "Glycogen Synthase Kinase 3β inhibition assay (GSK3β)", "format": "biochemical", "conditions": "10 μM compound", "description": "The GSK3β kinase activity assay utilizes a radioactivity-based format in a 96-well PCR plate with radioactive readout. The GSK3 β activity was assayed in a 25 μL assay mixture containing 8 mM HEPES (pH 7.0), 250 μM ATP, 0.2 mM EDTA (pH 8), 2% DMSO, 250 ng/mL Myelin Basic Protein (MBP, Sigma M-1891), and 12 ng/mL GSK3β (Upstate Discovery, specific activity=607 nmol/min*GS2 peptide, concentration of 6.05 mg/mL). Compounds were screened for inhibition of the GSK3β kinase activity at a concentration of 10 μM. The kinase reaction was allowed to proceed at 37° C. for 30 minutes, then the reaction was stopped by addition of 5 μL of 0.5M EDTA (pH 8)."}}, "data": [{"smiles": "NC(=O)[C@]1(N)CC2CC1n1c3ccccc3c3c4c(c5c6ccccc6n2c5c31)C(=O)NC4=O", "note": "(mixture of isomers) [Compound 5]", "values": [{"measurement": "% Inhibition PKC", "setting": "PKC (rat brain)", "value": 91.62, "unit": "%"}, {"measurement": "inhibition at 10 µM", "setting": "[1]", "value": 96.8, "unit": "%"}, {"measurement": "inhibition at 10 µM", "setting": "His tagged ERK2", "value": 92.3, "unit": "%"}, {"measurement": "Kp at 1 h", "setting": "[2]; Wistar Han, rat, brain and plasma, iv, 5 mg/kg, 5 mg/kg i.v., 2.3 mL/kg PEG 400, read-out: brain/plasma ratio", "value": "~1"}, {"measurement": "brain concentration compared with NAD002", "setting": "[2]", "value": "Significantly higher"}, {"measurement": "improvement of brain/plasma ratio over K252a", "setting": "[2]", "value": "about two-fold"}, {"measurement": "improvement of brain/plasma ratio over NAD002", "setting": "[2]", "value": "several-fold"}, {"measurement": "plasma levels compared with NAD002 and K252a", "setting": "[2]", "value": "Lower"}, {"measurement": "inhibition at 10 µM", "setting": "GSK3β", "value": 100, "unit": "%"}]}]}
